PMC8634379, “From the Design to the In Vivo Evaluation of Benzohomoadamantane-Derived Soluble Epoxide Hydrolase Inhibitors for the Treatment of Acute Pancreatitis” (Journal of Medicinal Chemistry, 2021)
pIC50: −log10 of the molar value.

Key:
human sEH (hsEH) = target: T1, human sEH (hsEH) (Homo sapiens, UniProt P34913); experiment: sEH inhibition, fluorescent-based assay (CMNPC substrate); type: biochemical; conditions: for fold difference (decrease) in hsEH potency: 17 vs 16 (oxygen for methylene), 18 vs 17 (hydrogen for methyl)
T1 sequence (P34913 1-555): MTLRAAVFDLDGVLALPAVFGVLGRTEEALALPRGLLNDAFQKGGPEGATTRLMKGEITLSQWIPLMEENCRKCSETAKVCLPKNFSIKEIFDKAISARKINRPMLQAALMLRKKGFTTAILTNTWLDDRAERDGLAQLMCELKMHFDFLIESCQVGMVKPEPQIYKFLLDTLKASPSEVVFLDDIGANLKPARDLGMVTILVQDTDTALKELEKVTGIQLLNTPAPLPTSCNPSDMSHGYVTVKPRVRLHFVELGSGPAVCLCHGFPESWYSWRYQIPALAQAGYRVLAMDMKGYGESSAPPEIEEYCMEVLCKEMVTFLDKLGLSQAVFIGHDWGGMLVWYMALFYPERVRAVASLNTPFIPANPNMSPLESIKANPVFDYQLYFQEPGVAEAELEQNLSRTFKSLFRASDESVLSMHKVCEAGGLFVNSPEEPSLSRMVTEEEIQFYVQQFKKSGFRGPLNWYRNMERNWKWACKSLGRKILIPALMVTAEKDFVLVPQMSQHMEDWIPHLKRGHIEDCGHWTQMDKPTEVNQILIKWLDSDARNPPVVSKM
Method: The IC50 values reported herein were determined using a fluorescent-based assay (CMNPC as substrate).[16] The fluorescent assay was used with purified recombinant human, mouse, or rat sEH proteins. The enzymes were incubated at 30 °C with the inhibitors ([I]final = 0.4–100,000 nM) for 5 min in 100 mM sodium phosphate buffer (200 μL, pH 7.4) containing 0.1 mg/mL of BSA and 1% of DMSO. The substrate (CMNPC) was then added ([S]final = 5 μM). […] Results were obtained by regression analysis from a linear region of the curve.

Microsomal stability [1] = type: in vitro ADME, human; conditions: after 60 min incubation, NADP, 37 °C
Method: (§1) The human, rat, and mice recombinant microsomes employed were purchased from Tebu–Xenotech. […] Samples (75 μL) were taken from each well at 0, 10, 20, 40, and 60 min and transferred to a plate containing 4 °C 75 μL of acetonitrile and 30 μL of 0.5% formic acid in water were added for improving the chromatographic conditions. The plate was centrifuged ([…], 30 min) and supernatants were taken and analyzed by an ultraperformance liquid chromatograph–tandem mass spectrometer (Xevo-TQD, Waters) by employing a BEH C18 column and an isocratic gradient of 0.1% formic acid in water: 0.1% formic acid acetonitrile (60:40). The metabolic stability of the compounds was calculated from the logarithm of the remaining compounds at each of the time points studied.

Microsomal stability [2] = type: in vitro ADME, mice; conditions: after 60 min incubation, NADP, 37 °C
Method: as §1

Microsomal stability [3] = conditions: after 60 min incubation, NADP, 37 °C
Method: as §1

[4] = purified recombinant enzyme, average of three replicates

SMILES | pIC50 (human sEH (hsEH); [4]) | microsomal stability, percentage of remaining compound (human) (Microsomal stability [1]) [%] | microsomal stability, percentage of remaining compound (mice) (Microsomal stability [2]) [%] | fold difference (decrease) in hsEH potency (human sEH (hsEH)) [fold] | pIC50 (human sEH (hsEH); value given in the text) | microsomal stability, percentage of remaining compound (rat) (Microsomal stability [3])
CC12CC3CC(NC(=S)Nc4ccc(C(F)(F)F)cc4)(CC(C1)c1ccccc13)C2 [Compound 9, 1-(9-Methyl-5,6,8,9,10,11-hexahydro-7H-5,9:7,11-dimethanobenzo[9]annulen-7-yl)-3-(4-(trifluoromethyl)phenyl)thiourea] | 6.86 | – | – | – | – | –
Cc1ccc(OC(=O)NC23CC4CC(C)(CC(C2)c2ccccc24)C3)cc1 [Compound 11, p-Tolyl (9-Methyl-5,6,8,9,10,11-hexahydro-7H-5,9:7,11-dimethanobenzo[9]annulen-7-yl)carbamate] | < 5.00 | – | – | – | 4.90 | –
CC12CC3CC(NC(=O)Nc4ccc(F)c(F)c4F)(CC(C1)c1ccccc13)C2 [Compound 13, 1-(9-Methyl-5,6,8,9,10,11-hexahydro-7H-5,9:7,11-dimethanobenzo[9]annulen-7-yl)-3-(2,3,4-trifluorophenyl)urea] | 9.00 | 7 | 0.2 | – | – | –
CC(=O)N1CCC(NC(=O)NC23CC4CC(C)(CC(C2)c2ccccc24)C3)CC1 [Compound 16, 1-(1-Acetylpiperidin-4-yl)-3-(9-methyl-5,6,8,9,10,11-hexahydro-7H-5,9:7,11-dimethanobenzo[9]annulen-7-yl)urea] | – | – | – | – | – | less than 1%

Further lines, with some results ahead:

pIC50 (human sEH (hsEH); [4]) | microsomal stability, percentage of remaining compound (human) (Microsomal stability [1]) [%] | microsomal stability, percentage of remaining compound (mice) (Microsomal stability [2]) [%] | fold difference (decrease) in hsEH potency (human sEH (hsEH)) [fold] | SMILES | pIC50 (human sEH (hsEH); value given in the text) | microsomal stability, percentage of remaining compound (rat) (Microsomal stability [3])
7.70 | 77 | 23 | – | CC12CC3CC(NC(=O)Nc4ccc(F)c(F)c4F)(CC(C1)c1ccccc13)O2 [Compound 14, 1-(5-Methyl-1,5,6,7-hexahydro-1,5:3,7-dimethanobenzo[e]oxonin-3(2H)-yl)-3-(2,3,4-trifluorophenyl)urea] | – | 33%
6.03 | – | – | 300 | CC(=O)N1CCC(NC(=O)NC23CC4CC(C)(CC(C2)c2ccccc24)O3)CC1 [Compound 17, 1-(1-Acetylpiperidin-4-yl)-3-(5-methyl-1,5,6,7-tetrahydro-1,5:3,7-dimethanobenzo[e]oxonin-3(2H)-yl)urea] | – | –
< 5.00 | – | – | > 10 | CC(=O)N1CCC(NC(=O)NC23CC4CC(CC(C2)c2ccccc24)O3)CC1 [Compound 18, 1-(1-Acetylpiperidin-4-yl)-3-(1,5,6,7-tetrahydro-1,5:3,7-dimethanobenzo[e]oxonin-3(2H)-yl)urea] | – | –
7.55 | 90 | 83 | – | CC12CC3CC(NC(=O)N[C@H]4CC[C@H](Oc5ccc(C(=O)O)cc5)CC4)(CC(C1)c1ccccc13)O2 [Compound 21, 4-[((1r,4r)-4-(3-(5-Methyl-1,5,6,7-tetrahydro-1,5:3,7-Dimethanobenzo[e]oxonin-3(2H)-yl)ureido)cyclohexyl)oxy]benzoic Acid] | – | –
